Assay results taken from patent US10858373B2, “Heterocyclic spiro compounds as MAGL inhibitors” (Pfizer Inc., priority 2017, dated 2020).
Where two headings read alike, the source gives them in different places.

Legend:
[1] = target: T1, human recombinant Monoacylglycerol Lipase (Homo sapiens (Human), UniProt Q99685); assay: MAGL Enzymatic Assay (fluorogenic substrate 7-HCA), IC50; type: biochemical; conditions: geometric mean of 2-4 determinations unless otherwise indicated
Procedure: An equal volume of 7-HCA in assay buffer with 10% DMSO was added either immediately (T=0 min) or after a 30 minute incubation (T=30 min) to initiate the reaction. […] After these dilutions, the final concentration of the test compound ranged from 3 μM to 0.03 nM. […] IC50 values were generated based on a four parameter fit model using ABASE software from IDBS.

[2] = target: T1, human recombinant Monoacylglycerol Lipase; assay: MAGL inactivation (enzyme progress curves, kinact/KI); type: biochemical; conditions: from plot of Kobs vs. compound concentration; T=0 min protocol; geometric mean of 2-4 determinations

T1 sequence (Q99685 whole entry): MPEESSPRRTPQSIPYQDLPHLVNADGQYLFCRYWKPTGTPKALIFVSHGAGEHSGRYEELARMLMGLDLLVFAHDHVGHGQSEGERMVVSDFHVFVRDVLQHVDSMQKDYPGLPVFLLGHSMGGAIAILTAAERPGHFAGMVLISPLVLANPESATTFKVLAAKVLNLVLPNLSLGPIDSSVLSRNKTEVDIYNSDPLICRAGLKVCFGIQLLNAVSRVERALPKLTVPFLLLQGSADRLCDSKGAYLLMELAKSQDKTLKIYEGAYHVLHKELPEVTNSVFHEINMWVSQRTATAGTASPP

IC50 ([1]; substrate added after a 30 minute incubation (T=30 min), read-out: MAGL (T = 30 min) IC50): > 0.247 µM | IC50 ([1]; substrate added immediately (T=0 min), read-out: MAGL (T = 0 min) IC50): > 0.692 µM | MAGL Kinact/Kl [2]: 3290 1/s per M
SMILES: CN(C(=O)C(C)(C)C)C1COC2(CCN(C(=O)ON3C(=O)CCC3=O)CC2)C1 (stereo not drawn) [Example 51, N-(8-{[(2,5-dioxopyrrolidin-1-yl)oxy]carbonyl}-1-oxa-8-azaspiro[4.5]dec-3-yl)-N,2,2-trimethylpropanamide]
